Test results as given in patent publication US9668480B2, “Method for treating plants against fungi resistant to fungicides using carboxamide or thiocarboxamide derivatives” (priority 2012, dated 2017).
Where “and” joins values, the source holds several entries; their conditions need not be identical. Identical values can stand only once.

What was measured:
[1] = target: succinate-ubiquinone redutase (SDH) of mitochondria from Bo47 WT strain (Botrytis cinerea, UniProt A0A384J5E4+D2IH01+D2IH03); assay: SDH activity of extracted mitochondria by DCPIP reduction at 595 nm, wild type; assay type: biochemical; conditions: 20 min preincubation, -log 10 of concentration inhibiting DCPIP reduction by 50%; for IC50: PI50 Bo47 (Wild type)
Method: (§1) Compounds activity was investigated at the level of the mitochondrial target and compared to other SDH inhibitors.
(§2) Mitochondria were extracted according to Cramer et al. (1983) Analytical biochemistry, 128, 384-392 and the mycelium prepared according to Fritz et al., (1993). Agronomie 13, 225-230 except that spore's incubation was pursued for 48 hours. SDH activity was measured by following DCPIP (2,6-dichlorphenol-indophenol) reduction at 595 nm overtime. To test SDH inhibitors, mitochondria were incubated with test compounds for 20 min prior the initiation of the reaction.

[2] = target: succinate-ubiquinone redutase (SDH) of mitochondria from the 3884 strain (SDHB P225H substitution) (Botrytis cinerea, UniProt A0A384J5E4+D2IH01+D2IH03, P225H); assay: SDH activity of extracted mitochondria by DCPIP reduction at 595 nm, P225H mutant; assay type: biochemical; set-up: key to Classification: Classification A pI50 increase or stable compared to WT; Classification B pI50 decrease inferior or equal to 0.6 compared to WT; Classification C pI50 decrease superior to 0.6 compared to WT; conditions: for IC50 / PI50 P225H3884: mitochondria of 3884 strain, 20 min preincubation, -log 10 of concentration inhibiting DCPIP reduction by 50%; for IC50: read-out: PI50 P225H3884 (converted); for Classification: pI50 on P225H 3884 mitochondria compared to WT
Method: as §1, §2

[3] = system: Botrytis cinerea boscalid-resistant strains with SDHB_P225H, F substitutions; assay: Sensitivity assay in microtiter plate, resistance factor of boscalid-resistant field strains versus Bo47 WT; assay type: cell-based
Method: Four to five strains with SDHB_P225H, F substitutions were retained for subsequent sensitivity assays in microtiter plate. IC50 of test compounds were determined and resistance factors (RF) calculated as the ratio of IC50 mutant/IC50 WT (Bo47). […] Strains giving a RF below 10 were considered sensitive, moderately resistant when RF was comprised between 10 and 50, resistant above 50.

[4] = mutation P225F, BOTRCI strain 08BC1554
[5] = mutation P225F, BOTRCI strain 08BC1557
[6] = mutation P225F, BOTRCI strain 08BC1558
[7] = mutation P225F, BOTRCI strain 09BC2615
[8] = mutation P225H, BOTRCI strain 09BC2640
[9] = mutation P225H, BOTRCI strain 09BC2648
[10] = mutation P225H, BOTRCI strain 09BC2649
[11] = mutation P225H, BOTRCI strain 09BC2652

Chain of succinate-ubiquinone redutase (SDH) of mitochondria from the 3884 strain (SDHB P225H substitution) (A0A384J5E4 30-300, stated change not applied): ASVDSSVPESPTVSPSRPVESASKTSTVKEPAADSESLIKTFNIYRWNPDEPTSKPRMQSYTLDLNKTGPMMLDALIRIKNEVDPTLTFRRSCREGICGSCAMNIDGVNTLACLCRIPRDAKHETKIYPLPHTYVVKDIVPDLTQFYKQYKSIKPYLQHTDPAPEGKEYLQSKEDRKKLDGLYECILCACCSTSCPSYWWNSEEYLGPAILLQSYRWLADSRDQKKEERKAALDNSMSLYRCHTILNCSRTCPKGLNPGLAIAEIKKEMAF
Chain of succinate-ubiquinone redutase (SDH) of mitochondria from the 3884 strain (SDHB P225H substitution) (D2IH03 46-189, stated change not applied): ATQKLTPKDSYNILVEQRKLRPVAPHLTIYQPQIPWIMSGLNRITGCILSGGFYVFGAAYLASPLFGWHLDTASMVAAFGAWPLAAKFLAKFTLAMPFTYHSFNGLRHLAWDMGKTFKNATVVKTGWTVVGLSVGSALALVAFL
Chain of succinate-ubiquinone redutase (SDH) of mitochondria from the 3884 strain (SDHB P225H substitution) (D2IH01 64-192, stated change not applied): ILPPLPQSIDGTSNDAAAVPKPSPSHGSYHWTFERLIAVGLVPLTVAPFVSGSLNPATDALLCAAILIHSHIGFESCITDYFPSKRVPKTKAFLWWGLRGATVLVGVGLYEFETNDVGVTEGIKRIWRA
Chain of succinate-ubiquinone redutase (SDH) of mitochondria from the 3884 strain (SDHB P225H substitution) (A0A384K456 34-647 partner): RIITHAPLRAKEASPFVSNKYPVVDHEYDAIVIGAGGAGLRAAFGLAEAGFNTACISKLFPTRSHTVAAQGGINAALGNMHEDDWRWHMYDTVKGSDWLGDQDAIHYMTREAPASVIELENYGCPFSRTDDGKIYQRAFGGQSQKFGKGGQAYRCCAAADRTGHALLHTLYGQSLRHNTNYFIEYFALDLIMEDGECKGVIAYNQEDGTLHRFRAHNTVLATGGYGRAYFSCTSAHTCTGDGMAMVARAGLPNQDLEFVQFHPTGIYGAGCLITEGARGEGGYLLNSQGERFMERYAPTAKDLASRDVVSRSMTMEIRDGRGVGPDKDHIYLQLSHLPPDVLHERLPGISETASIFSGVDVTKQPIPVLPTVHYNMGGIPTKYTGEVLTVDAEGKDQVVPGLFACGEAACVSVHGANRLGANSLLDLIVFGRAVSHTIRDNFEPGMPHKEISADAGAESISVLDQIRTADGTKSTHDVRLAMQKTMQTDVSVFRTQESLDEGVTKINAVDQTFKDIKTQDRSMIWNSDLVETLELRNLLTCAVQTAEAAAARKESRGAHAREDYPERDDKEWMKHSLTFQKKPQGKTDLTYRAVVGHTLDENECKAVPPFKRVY
Chain of succinate-ubiquinone redutase (SDH) of mitochondria from Bo47 WT strain (A0A384K456 entry or part of it): as the sequence (A0A384K456 34-647 partner) above
Chain of succinate-ubiquinone redutase (SDH) of mitochondria from Bo47 WT strain (D2IH03 entry or part of it): as the sequence (D2IH03 46-189, stated change not applied) above
Chain of succinate-ubiquinone redutase (SDH) of mitochondria from Bo47 WT strain (A0A384J5E4 entry or part of it): as the sequence (A0A384J5E4 30-300, stated change not applied) above
Chain of succinate-ubiquinone redutase (SDH) of mitochondria from Bo47 WT strain (D2IH01 entry or part of it): as the sequence (D2IH01 64-192, stated change not applied) above

| Compound | IC50 [1] | IC50 [2] | Classification [2] | other results |
| --- | --- | --- | --- | --- |
| Cn1nc(C(F)F)c(C(=O)N(Cc2c(C(F)(F)F)ccc(Cl)c2F)C2CC2)c1F [Compound A18, N-[3-chloro-2-fluoro-6-(trifluoromethyl)benzyl]-N-cyclopropyl-3-(difluoromethyl)-5-fluoro-1-methyl-1H-pyrazole-4-carboxamide] | 15.8 nM | 6.31 nM | A | activity on strains with P225 substitutions compared with wild type strain ([3]; strains with P225 substitutions vs wild type): always more active on strains with P225 substitutions than on wild type strain |
| Cc1ccc(C(C)(C)C)c(CN(C(=O)c2c(C(F)F)nn(C)c2F)C2CC2)c1 [Compound A14, N-(2-tert-butyl-5-methylbenzyl)-N-cyclopropyl-3-(difluoromethyl)-5-fluoro-1-methyl-1H-pyrazole-4-carboxamide] | 5.01 nM | 3.16 nM | A |  |
| CC(C)c1cccc(F)c1CN(C(=O)c1c(C(F)F)nn(C)c1F)C1CC1 [Compound A10, N-cyclopropyl-3-(difluoromethyl)-5-fluoro-N-(2-fluoro-6-isopropylbenzyl)-1-methyl-1H-pyrazole-4-carboxamide] | 3.98 nM | 6.31 nM | B (Classification B pI50 decrease inferior or equal to 0.6 compared to WT) |  |
| CC(C)c1ccccc1CN(C(=O)c1c(C(F)F)nn(C)c1F)C1CC1 [Compound A1, N-cyclopropyl-3-(difluoromethyl)-5-fluoro-N-(2-isopropylbenzyl)-1-methyl-1H-pyrazole-4-carboxamide] | 12.6 nM | 3.16 nM | A |  |
| Cn1nc(C(F)F)c(C(=O)N(Cc2cc(F)ccc2C2CC2)C2CC2)c1F [Compound A8, N-cyclopropyl-N-(2-cyclopropyl-5-fluorobenzyl)-3-(difluoromethyl)-5-fluoro-1-methyl-1H-pyrazole-4-carboxamide] | 7.94 nM | 3.16 nM | A |  |
| CCc1ccccc1CN(C(=O)c1c(C(F)F)nn(C)c1F)C1CC1 [Compound A21, N-cyclopropyl-3-(difluoromethyl)-N-(2-ethylbenzyl)-5-fluoro-1-methyl-1H-pyrazole-4-carboxamide] | 10 nM and 31.6 nM | 2.51 nM | A |  |
| Cn1nc(C(F)F)c(C(=O)N(Cc2ccccc2[Si](C)(C)C)C2CC2)c1F [Compound A22, N-cyclopropyl-3-(difluoromethyl)-5-fluoro-1-methyl-N-[2-(trimethylsilyl)benzyl]-1H-pyrazole-4-carboxamide] | 3.98 nM | 3.16 nM | A |  |
| O=C(Nc1ccccc1-c1ccc(Cl)cc1)c1cccnc1Cl [Boscalid, reference compound] | 39.8 nM | 5010 nM | C (Classification C pI50 decrease superior to 0.6 compared to WT) |  |
| Cn1nc(C(F)F)c(C(=O)N(Cc2cc(Cl)ccc2C(F)(F)F)C2CC2)c1F [Compound A15, N-[5-chloro-2-(trifluoromethyl)benzyl]-N-cyclopropyl-3-(difluoromethyl)-5-fluoro-1-methyl-1H-pyrazole-4-carboxamide] | 15.8 nM | 6.31 nM | A |  |
| Cn1nc(C(F)F)c(C(=O)N(Cc2cc(F)ccc2C2CCCC2)C2CC2)c1F [Compound A9, N-(2-cyclopentyl-5-fluorobenzyl)-N-cyclopropyl-3-(difluoromethyl)-5-fluoro-1-methyl-1H-pyrazole-4-carboxamide] | 5.01 nM | 3.16 nM | A |  |
| Cn1nc(C(F)F)c(C(=O)N(Cc2ccccc2C2CC2)C2CC2)c1F [Compound A2, N-cyclopropyl-N-(2-cyclopropylbenzyl)-3-(difluoromethyl)-5-fluoro-1-methyl-1H-pyrazole-4-carboxamide] | 6.31 nM | 2.51 nM | A |  |
| CC(C)CC(C)c1sccc1NC(=O)c1cn(C)nc1C(F)(F)F (stereo not shown) [Penthiopyrad, reference compound] | 15.8 nM | 501 nM | C (Classification C pI50 decrease superior to 0.6 compared to WT) |  |
| Cn1nc(C(F)F)c(C(=O)N(Cc2ccccc2C(C)(C)C)C2CC2)c1F [Compound A3, N-(2-tert-butylbenzyl)-N-cyclopropyl-3-(difluoromethyl)-5-fluoro-1-methyl-1H-pyrazole-4-carboxamide] |  |  |  | resistance factor (RF), ratio of IC50 mutant/IC50 WT (Bo47) [3, 4]: 1.8; resistance factor (RF), ratio of IC50 mutant/IC50 WT (Bo47) [3, 5]: 1.2; resistance factor (RF), ratio of IC50 mutant/IC50 WT (Bo47) [3, 6]: 2.2; resistance factor (RF), ratio of IC50 mutant/IC50 WT (Bo47) [3, 7]: 1.0; resistance factor (RF), ratio of IC50 mutant/IC50 WT (Bo47) [3, 8]: 0.9; resistance factor (RF), ratio of IC50 mutant/IC50 WT (Bo47) [3, 9]: 1.0; resistance factor (RF), ratio of IC50 mutant/IC50 WT (Bo47) [3, 10]: 1.7; resistance factor (RF), ratio of IC50 mutant/IC50 WT (Bo47) [3, 11]: 1.1 |
| Cn1nc(C(F)F)c(C(=O)N(Cc2c(Cl)cccc2C(F)(F)F)C2CC2)c1F [Compound A17, N-[2-chloro-6-(trifluoromethyl)benzyl]-N-cyclopropyl-3-(difluoromethyl)-5-fluoro-1-methyl-1H-pyrazole-4-carboxamide] | 10 nM | 3.16 nM | A |  |
| Cc1ccc(C(C)C)c(CN(C(=O)c2c(C(F)F)nn(C)c2F)C2CC2)c1 [Compound A12, N-cyclopropyl-3-(difluoromethyl)-5-fluoro-N-(2-isopropyl-5-methylbenzyl)-1-methyl-1H-pyrazole-4-carboxamide] | 3.98 nM | 1 nM | A |  |
| Cc1ccc(C(F)(F)F)c(CN(C(=O)c2c(C(F)F)nn(C)c2F)C2CC2)c1 [Compound A16, N-cyclopropyl-3-(difluoromethyl)-5-fluoro-1-methyl-N-[5-methyl-2-(trifluoromethyl)benzyl]-1H-pyrazole-4-carboxamide] | 20 nM | 5.01 nM | A |  |
| CC(C)C1C2CCC1c1c(NC(=O)c3cn(C)nc3C(F)F)cccc12 (stereo not shown) [Isopyrazam] |  |  | C (Classification C pI50 decrease superior to 0.6 compared to WT) | PI50 Bo47 (Wild type) [1]: 8 and 8.2; PI50 P225H3884 [2]: 7.2; resistance factor (RF), ratio of IC50 mutant/IC50 WT (Bo47) [3, 4]: 48.4; resistance factor (RF), ratio of IC50 mutant/IC50 WT (Bo47) [3, 5]: 42.9; resistance factor (RF), ratio of IC50 mutant/IC50 WT (Bo47) [3, 6]: 37.9; resistance factor (RF), ratio of IC50 mutant/IC50 WT (Bo47) [3, 7]: 32.8; resistance factor (RF), ratio of IC50 mutant/IC50 WT (Bo47) [3, 8]: 19.7; resistance factor (RF), ratio of IC50 mutant/IC50 WT (Bo47) [3, 9]: 25.1; resistance factor (RF), ratio of IC50 mutant/IC50 WT (Bo47) [3, 10]: 30.7; sensitivity class of strains by RF ([3]; strains harboring P225H and F substitutions): moderately resistant (moderately resistant when RF was comprised between 10 and 50) |
| CCc1ccc(F)cc1CN(C(=O)c1c(C(F)F)nn(C)c1F)C1CC1 [Compound A6, N-cyclopropyl-3-(difluoromethyl)-N-(2-ethyl-5-fluorobenzyl)-5-fluoro-1-methyl-1H-pyrazole-4-carboxamide] | 7.94 nM | 2.51 nM | A |  |
| CC(C)c1ccc(Cl)cc1CN(C(=O)c1c(C(F)F)nn(C)c1F)C1CC1 [Compound A5, N-(5-chloro-2-isopropylbenzyl)-N-cyclopropyl-3-(difluoromethyl)-5-fluoro-1-methyl-1H-pyrazole-4-carboxamide] | 6.31 nM | 1.26 nM | A |  |
| CC(C)c1ccc(F)cc1CN(C(=O)c1c(C(F)F)nn(C)c1F)C1CC1 [Compound A7, N-cyclopropyl-3-(difluoromethyl)-5-fluoro-N-(5-fluoro-2-isopropylbenzyl)-1-methyl-1H-pyrazole-4-carboxamide] | 3.98 nM | 1.58 nM | A |  |
| CC(C)c1ccccc1CN(C(=S)c1c(C(F)F)nn(C)c1F)C1CC1 [Compound A20, N-cyclopropyl-3-(difluoromethyl)-5-fluoro-N-(2-isopropylbenzyl)-1-methyl-1H-pyrazole-4-carbothioamide] | 631 nM | 31.6 nM | A |  |
| Cn1cc(C(=O)Nc2ccccc2-c2cc(F)c(F)c(F)c2)c(C(F)F)n1 [Fluxapyroxad] |  |  | C (Classification C pI50 decrease superior to 0.6 compared to WT) | PI50 Bo47 (Wild type) [1]: 8.0; PI50 P225H3884 [2]: 6.2; resistance factor (RF), ratio of IC50 mutant/IC50 WT (Bo47) [3, 4]: 197.2; resistance factor (RF), ratio of IC50 mutant/IC50 WT (Bo47) [3, 5]: 135.6; resistance factor (RF), ratio of IC50 mutant/IC50 WT (Bo47) [3, 6]: 131.5; resistance factor (RF), ratio of IC50 mutant/IC50 WT (Bo47) [3, 7]: 89.1; resistance factor (RF), ratio of IC50 mutant/IC50 WT (Bo47) [3, 8]: 103.0; resistance factor (RF), ratio of IC50 mutant/IC50 WT (Bo47) [3, 9]: 127.9; resistance factor (RF), ratio of IC50 mutant/IC50 WT (Bo47) [3, 10]: 134.2; resistance factor (RF), ratio of IC50 mutant/IC50 WT (Bo47) [3, 11]: 104.7 |
